Results reported in PubChem BioAssay AID2027 (NMMLSC, 2009).

The molecules below were run against Ras-related C3 botulinum toxin substrate 1 (Homo sapiens) (UniProt P63000) (assay: analog inhibition of wildtype Rac1 nucleotide binding – biochemical, oxadiazole analogs, multiplex bead flow cytometry, SAR follow-up (AID 2027)). Details: GST-Rac1 beads, Bodipy-FL-GTP binding, Ki calculated from EC50.

Which Ki does the source give for Cc1ccc(C)c(N2CCN(C(=O)CCc3nc(-c4cccc(Br)c4)no3)CC2)c1 here?
Its Ki is 160 nM.

For Cc1ccc(C)c(N2CCN(C(=O)CCc3nc(-c4ccc(Cl)cc4)no3)CC2)c1, which Ki is on record?
The Ki was 170 nM.

With COc1ccc(-c2noc(CCC(=O)N3CCN(c4ccccc4Cl)CC3)n2)cc1 as the molecule, how does the Ki read?
Its Ki is 310 nM.

For Cc1ccc(C)c(N2CCN(C(=O)CCc3nc(-c4cccc(F)c4)no3)CC2)c1, which Ki is on record?
Its Ki is 140 nM.

How did the Ki turn out when COc1cccc(-c2noc(CCC(=O)N3CCN(c4cc(C)ccc4C)CC3)n2)c1 was run?
Its Ki is 570 nM.

How did the Ki turn out when COc1ccc(-c2noc(CCC(=O)N3CCN(c4ccc(OC)cc4)CC3)n2)cc1 was run?
The Ki was 50 nM.

For Cc1ccc(-c2noc(CCC(=O)N3CCN(c4cc(C)ccc4C)CC3)n2)cc1, which Ki is on record?
Its Ki is 300 nM.

How did the Ki turn out when COc1ccc(-c2noc(CCC(=O)N3CCN(c4ccc(Br)cc4)CC3)n2)cc1 was run?
Its Ki is 20 nM.

How did the Ki turn out when COc1ccc(-c2noc(CCCCC(=O)N3CCN(c4cc(C)ccc4C)CC3)n2)cc1 was run?
Its Ki is 1960 nM.

Which Ki does the source give for Cc1ccc(C)c(N2CCN(C(=O)CCc3nc(-c4ccc(N(C)C)cc4)no3)CC2)c1 here?
Its Ki is 260 nM.

With Cc1ccc(C)c(N2CCN(C(=O)CCc3nc(-c4ccccc4Cl)no3)CC2)c1 as the molecule, how does the Ki read?
Its Ki is 110 nM.

For COc1ccc(-c2noc(CCC(=O)N3CCN(c4ccccc4C(F)(F)F)CC3)n2)cc1, which Ki is on record?
Its Ki is 160 nM.

Cc1ccc(C)c(N2CCN(C(=O)CCc3nc(-c4ccccc4)no3)CC2)c1 was tested. Which Ki did it give?
The Ki was 150 nM.

How did the Ki turn out when Cc1cccc(-c2noc(CCC(=O)N3CCN(c4cc(C)ccc4C)CC3)n2)c1 was run?
The Ki was 110 nM.

With COc1ccccc1-c1noc(CCC(=O)N2CCN(c3cc(C)ccc3C)CC2)n1 as the molecule, how does the Ki read?
Its Ki is 1410 nM.

For Cc1ccc(C)c(N2CCN(C(=O)CCc3nc(-c4ccc(Br)cc4)no3)CC2)c1, which Ki is on record?
Its Ki is 280 nM.

For Cc1ccc(C)c(N2CCN(C(=O)CCc3nc(-c4ccc(C(F)(F)F)cc4)no3)CC2)c1, which Ki is on record?
Its Ki is 200 nM.

Which Ki does the source give for COc1ccc(-c2noc(CCC(=O)N3CCN(c4ccccc4Br)CC3)n2)cc1 here?
The Ki was 160 nM.

How did the Ki turn out when COc1ccc(-c2noc(CCC(=O)N3CCN(c4ccc(F)cc4)CC3)n2)cc1 was run?
Its Ki is 150 nM.

COc1ccc(-c2noc(CCC(=O)N3CCN(c4ccccc4F)CC3)n2)cc1 was tested. Which Ki did it give?
Its Ki is 100 nM.

Which Ki does the source give for Cc1ccc(C)c(N2CCN(C(=O)CCc3nc(-c4ccccc4Br)no3)CC2)c1 here?
The Ki was 160 nM.

How did the Ki turn out when COc1ccc(-c2noc(CCC(=O)N3CCN(c4cc(C)ccc4C)CC3)n2)cc1 was run?
The Ki was 470 nM.

COc1ccc(-c2noc(CCC(=O)N3CCC(c4cc(C)ccc4C)CC3)n2)cc1 was tested. Which Ki did it give?
Its Ki is 110 nM.

Which Ki does the source give for Cc1ccc(C)c(N2CCN(C(=O)CCc3nc(-c4ccc(F)cc4)no3)CC2)c1 here?
The Ki was 120 nM.

For COc1ccc(-c2noc(CCC(=O)N3CCN(c4ccc(C)cc4)CC3)n2)cc1, which Ki is on record?
The Ki was 250 nM.

COc1ccc(-c2noc(CC(=O)N3CCN(c4cc(C)ccc4C)CC3)n2)cc1 was tested. Which Ki did it give?
Its Ki is 700 nM.

Which Ki does the source give for COc1ccc(-c2coc(CCC(=O)N3CCN(c4cc(C)ccc4C)CC3)n2)cc1 here?
Its Ki is 210 nM.

Which Ki does the source give for COc1ccc(-c2noc(CCC(=O)N3CCN(c4ccccc4OC)CC3)n2)cc1 here?
Its Ki is 210 nM.

For COc1ccc(-c2noc(CCC(=O)N3CCN(c4ccccc4C)CC3)n2)cc1, which Ki is on record?
Its Ki is 130 nM.

For COc1ccc(-c2noc(CCC(=O)N3CCN(c4cccc(C)c4C)CC3)n2)cc1, which Ki is on record?
Its Ki is 120 nM.

How did the Ki turn out when Cc1ccc(C)c(N2CCN(C(=O)CCc3nc(-c4ccccc4F)no3)CC2)c1 was run?
Its Ki is 170 nM.

For Cc1ccc(C)c(N2CCN(C(=O)CCc3nc(-c4ccccc4C(F)(F)F)no3)CC2)c1, which Ki is on record?
The Ki was 200 nM.

How did the Ki turn out when Cc1ccc(C)c(N2CCN(C(=O)CCc3nc(-c4ccccc4C)no3)CC2)c1 was run?
The Ki was 160 nM.

For Cc1ccc(C)c(N2CCN(C(=O)CCc3nc(-c4cccc(Cl)c4)no3)CC2)c1, which Ki is on record?
The Ki was 460 nM.

Cc1ccc(C)c(N2CCN(C(=O)CCc3nc(-c4cccc(C(F)(F)F)c4)no3)CC2)c1 was tested. Which Ki did it give?
The Ki was 230 nM.

With COc1ccc(-c2noc(CCCC(=O)N3CCN(c4cc(C)ccc4C)CC3)n2)cc1 as the molecule, how does the Ki read?
The Ki was 350 nM.
